According to US10968227B2, “Isoquinoline ether compounds as mGluR4 allosteric potentiators, compositions, and methods of treating neurological dysfunction” (Vanderbilt University, priority 2016, dated 2021):
Values after ≈ are worked out from the molar mass of the structure shown.

How the values were obtained:
[1] = Kinetic solubility; format: physicochemical; conditions: kinetic from dmso stock
[2] = Rat plasma fraction unbound; format: in vitro ADME; conditions: read-out: Rat Fu Plasma
[3] = Rat brain fraction unbound; format: in vitro ADME; conditions: read-out: Rat Fu Brain
[4] = Brain-plasma partition; format: in vivo; conditions: rat; for unbound brain-to-plasma partition coefficient (Kp,uu): unbound brain-plasma ratio, read-out: Brain-Plasma Kp,ω
[5] = Rat intrinsic and hepatic clearance; format: in vitro ADME
[6] = Human intrinsic and hepatic clearance; format: in vitro ADME
[7] = Human plasma fraction unbound; format: in vitro ADME; conditions: read-out: Human Fu Plasma
[8] = target: 1A2 (Homo sapiens (Human), UniProt P05177); assay: CYP 1A2 inhibition; format: in vitro ADME
[9] = target: 2C9 (Homo sapiens (Human), UniProt P11712); assay: CYP 2C9 inhibition; format: in vitro ADME
[10] = target: 2D6 (Homo sapiens (Human), UniProt P10635); assay: CYP 2D6 inhibition; format: in vitro ADME
[11] = target: 3A4 (Homo sapiens (Human), UniProt P08684); assay: CYP 3A4 inhibition; format: in vitro ADME
Chain of 3A4 (P08684 whole entry): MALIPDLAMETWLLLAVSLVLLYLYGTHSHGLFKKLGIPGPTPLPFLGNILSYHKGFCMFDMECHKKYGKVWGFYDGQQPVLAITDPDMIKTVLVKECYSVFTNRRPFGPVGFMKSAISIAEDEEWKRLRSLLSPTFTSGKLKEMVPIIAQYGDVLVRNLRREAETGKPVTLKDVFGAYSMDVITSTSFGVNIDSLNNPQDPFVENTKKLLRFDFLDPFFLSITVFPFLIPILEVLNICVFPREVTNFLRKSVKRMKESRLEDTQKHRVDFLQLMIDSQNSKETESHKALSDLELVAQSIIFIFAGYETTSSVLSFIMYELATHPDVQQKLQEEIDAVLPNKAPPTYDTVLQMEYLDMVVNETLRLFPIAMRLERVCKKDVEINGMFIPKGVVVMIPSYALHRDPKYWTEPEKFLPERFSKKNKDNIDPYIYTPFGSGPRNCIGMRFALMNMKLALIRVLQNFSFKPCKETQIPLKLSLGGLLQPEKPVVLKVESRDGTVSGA

Chain of 1A2 (P05177 whole entry): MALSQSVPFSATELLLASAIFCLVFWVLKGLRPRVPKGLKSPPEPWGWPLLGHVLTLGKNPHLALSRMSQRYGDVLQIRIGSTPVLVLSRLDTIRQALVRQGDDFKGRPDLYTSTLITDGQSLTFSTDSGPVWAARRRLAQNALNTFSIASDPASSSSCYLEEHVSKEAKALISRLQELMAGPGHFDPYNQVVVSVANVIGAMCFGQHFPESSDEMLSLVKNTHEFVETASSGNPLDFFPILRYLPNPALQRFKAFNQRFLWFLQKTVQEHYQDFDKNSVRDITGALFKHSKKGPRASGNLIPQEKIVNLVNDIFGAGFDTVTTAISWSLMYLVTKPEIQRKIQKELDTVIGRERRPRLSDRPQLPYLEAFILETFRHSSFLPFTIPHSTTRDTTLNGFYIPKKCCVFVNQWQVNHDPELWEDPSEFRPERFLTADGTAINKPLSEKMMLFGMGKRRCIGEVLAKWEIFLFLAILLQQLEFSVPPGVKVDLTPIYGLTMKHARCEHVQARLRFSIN
Chain of 2C9 (P11712 whole entry): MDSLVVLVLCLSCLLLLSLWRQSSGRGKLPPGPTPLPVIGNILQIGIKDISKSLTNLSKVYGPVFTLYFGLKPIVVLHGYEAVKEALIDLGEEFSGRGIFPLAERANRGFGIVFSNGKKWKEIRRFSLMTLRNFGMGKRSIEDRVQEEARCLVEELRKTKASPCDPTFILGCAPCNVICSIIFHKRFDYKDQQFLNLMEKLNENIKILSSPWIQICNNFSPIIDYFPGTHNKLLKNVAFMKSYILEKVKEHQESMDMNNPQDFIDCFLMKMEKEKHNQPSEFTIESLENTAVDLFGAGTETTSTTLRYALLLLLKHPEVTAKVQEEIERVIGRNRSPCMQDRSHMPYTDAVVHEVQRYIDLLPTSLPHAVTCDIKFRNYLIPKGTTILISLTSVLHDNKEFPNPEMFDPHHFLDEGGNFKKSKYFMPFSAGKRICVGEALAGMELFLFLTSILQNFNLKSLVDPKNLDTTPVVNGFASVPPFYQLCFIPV
Chain of 2D6 (P10635 whole entry): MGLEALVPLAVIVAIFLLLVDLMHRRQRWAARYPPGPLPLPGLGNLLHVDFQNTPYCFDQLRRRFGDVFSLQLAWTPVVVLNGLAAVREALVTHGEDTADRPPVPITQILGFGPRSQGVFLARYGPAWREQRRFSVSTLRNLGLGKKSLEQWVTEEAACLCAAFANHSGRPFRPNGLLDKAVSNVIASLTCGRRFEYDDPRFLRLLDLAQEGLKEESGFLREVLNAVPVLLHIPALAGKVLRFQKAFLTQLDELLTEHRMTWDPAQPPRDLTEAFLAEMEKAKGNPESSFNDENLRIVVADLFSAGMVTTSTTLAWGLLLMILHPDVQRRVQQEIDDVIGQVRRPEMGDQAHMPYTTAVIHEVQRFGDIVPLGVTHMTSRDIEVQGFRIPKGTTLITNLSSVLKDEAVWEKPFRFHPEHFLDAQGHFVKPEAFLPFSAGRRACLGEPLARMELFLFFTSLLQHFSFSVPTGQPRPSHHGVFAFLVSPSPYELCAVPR

Row | Structure (SMILES) | solubility kinetic [1] [µM] | fraction unbound [2] | fraction unbound [3] | Kp [4] | unbound brain-to-plasma partition coefficient (Kp,uu) [4] | CLint scaled [5] [mL/min/kg] | Rat CLhep [5] [mL/min/kg] | CLint scaled [6] [mL/min/kg] | Human CLhep [6] [mL/min/kg] | fraction unbound [7] | IC50 [8] [µM] | IC50 [9] [µM] | IC50 [10] [µM] | IC50 [11] [µM]
1 | COCCOc1nccc2cc(Nc3n[nH]c4ncccc34)ccc12 [Compound 74] | 0.8 ± 0.3 (≈ 0.268 µg/mL) | 0.041 | 0.007 | 0.59 | 0.1 | 252 | 54.8 | 32.3 | 12.7 | 0.038 | > 30 | > 30 | > 30 | > 30
2 | CCOCCOc1nccc2cc(Nc3n[nH]c4ncccc34)ccc12 [Compound 75] |  | 0.031 | 0.004 | 1 | 0.13 | 456 | 60.7 | 71.8 | 16.2 | 0.021 |  |  |  | 
3 | c1cnc2[nH]nc(Nc3ccc4c(OCC5CCCCO5)nccc4c3)c2c1 (centres unmarked) [Compound 76] |  | 0.01 | 0.001 | 1.27 | 0.13 |  |  |  |  | 0.008 |  |  |  | 
4 | CO[C@H](C)COc1nccc2cc(Nc3n[nH]c4ncccc34)ccc12 [Compound 78] |  | 0.042 | 0.004 | 0.99 | 0.09 |  |  |  |  | 0.023 |  |  |  | 
5 | c1cnc2[nH]nc(Nc3ccc4c(OCC5COCCO5)nccc4c3)c2c1 (centres unmarked) [Compound 80] | 1.4 ± 0.1 (≈ 0.528 µg/mL) | 0.037 | 0.007 | 0.46 | 0.09 | 376 | 59.0 | 22.4 | 10.8 | 0.033 | > 30 | 26.9 | > 30 | > 30
6 | CO[C@H](C)COc1nccc2cc(Nc3n[nH]c4nccnc34)ccc12 [Compound 84] |  | 0.027 | 0.008 | 1.11 | 0.33 | 145 | 47.2 | 75.3 | 16.4 | 0.019 |  |  |  | 
7 | C[C@H]1OCC[C@H]1Oc1nccc2cc(Nc3n[nH]c4ncccc34)ccc12 [Compound 92] | 0.9 ± 0.2 (≈ 0.325 µg/mL) |  |  |  |  | 518 | 61.7 | 129 | 18.1 |  |  |  |  | 
8 | c1cnc2[nH]nc(Nc3ccc4c(OCCN5CCOCC5)nccc4c3)c2c1 [Compound 94] | 15.2 ± 1.5 (≈ 5.93 µg/mL) |  |  |  |  | 923 | 65.1 | 87.6 | 16.9 |  |  |  |  | 
9 | Fc1cnc2c(Nc3ccc4c(O[C@H]5CCOC5)nccc4c3)n[nH]c2c1 [Compound 95] | 0.4 (≈ 0.146 µg/mL) |  |  |  |  | 127 | 45.1 | 40.3 | 13.6 |  |  |  |  | 
10 | COCCOc1nccc2cc(Nc3n[nH]c4ncc(F)cc34)ccc12 [Compound 96] | 0.3 ± 0.2 (≈ 0.106 µg/mL) |  |  |  |  | 327 | 57.7 | 37 | 13.4 |  |  |  |  | 
11 | COCCOc1nccc2cc(Nc3n[nH]c4cc(F)cnc34)ccc12 [Compound 97] | 1 ± 0.1 (≈ 0.353 µg/mL) |  |  |  |  | 161 | 48.8 | 96.8 | 17.3 |  |  |  |  | 
12 | COCCOc1nccc2cc(Nc3n[nH]c4ccccc34)ccc12 [Compound 98] | 1.6 ± 0.2 (≈ 0.535 µg/mL) |  |  |  |  | 216 | 52.9 | 30 | 12.4 |  |  |  |  | 
13 | Fc1cnc2[nH]nc(Nc3ccc4c(OC5CCOCC5)nccc4c3)c2c1 [Compound 99] | 0.7 ± 0.2 (≈ 0.266 µg/mL) |  |  |  |  | 227 | 53.5 | 36.8 | 13.4 |  |  |  |  | 
14 | Fc1cnc2c(Nc3ccc4c(OCC5COCCO5)nccc4c3)n[nH]c2c1 (centres unmarked) [Compound 100] | 1.1 ± 0.6 (≈ 0.435 µg/mL) |  |  |  |  | 156 | 48.3 | 46.1 | 14.4 |  |  |  |  | 

Next, values leading:

Row | solubility kinetic [1] [µM] | fraction unbound [2] | fraction unbound [3] | Kp [4] | unbound brain-to-plasma partition coefficient (Kp,uu) [4] | CLint scaled [5] [mL/min/kg] | Rat CLhep [5] [mL/min/kg] | CLint scaled [6] [mL/min/kg] | Human CLhep [6] [mL/min/kg] | fraction unbound [7] | IC50 [8] [µM] | IC50 [9] [µM] | IC50 [10] [µM] | IC50 [11] [µM] | Structure (SMILES)
15 | 2.6 ± 1.6 (≈ 0.906 µg/mL) |  |  |  |  |  |  |  |  |  |  |  |  |  | c1cc2cc(Nc3n[nH]c4nccnc34)ccc2c(O[C@H]2CCOC2)n1 [Compound 59]
16 | 10.3 ± 1.1 (≈ 3.72 µg/mL) | 0.038 | 0.004 | 3.38 | 0.36 | 461 | 60.8 | 58.3 | 15.4 | 0.017 | 6.32 | 3.96 | 27.8 | 4.76 | c1cnc2c(Nc3ccc4c(O[C@@H]5CCCOC5)nccc4c3)n[nH]c2c1 [Compound 62]
17 |  | 0.036 | 0.005 | 1.27 | 0.18 | 181 | 50.5 | 57.8 | 15.4 | 0.018 | 3.96 | 13.3 | > 30 | 22.3 | c1cnc2c(Nc3ccc4c(O[C@@H]5CCOC5)nccc4c3)n[nH]c2c1 [Compound 63]
18 |  | 0.043 | 0.003 | 1.28 | 0.09 |  |  |  |  | 0.028 |  |  |  |  | c1cnc2[nH]nc(Nc3ccc4c(O[C@@H]5CCOC5)nccc4c3)c2c1 [Compound 65]
19 |  | 0.047 | 0.006 | 0.87 | 0.11 | 210 | 52.5 | 37.9 | 13.5 | 0.019 | > 30 | > 30 | > 30 | > 30 | c1cnc2[nH]nc(Nc3ccc4c(O[C@H]5CCOC5)nccc4c3)c2c1 [Compound 66]
20 |  | 0.009 | 0.001 | 1.06 | 0.12 |  |  |  |  | 0.008 |  |  |  |  | c1cnc2c(Nc3ccc4c(OCC5CCOCC5)nccc4c3)n[nH]c2c1 [Compound 68]
21 | 9.9 ± 2.7 (≈ 3.46 µg/mL) | 0.023 | 0.005 | 1.23 | 0.27 |  |  |  |  | 0.017 |  |  |  |  | CCOCCOc1nccc2cc(Nc3n[nH]c4cccnc34)ccc12 [Compound 69]
22 |  | 0.024 | 0.003 | 0.8 | 0.1 | 151 | 47.8 | 41.1 | 13.9 | 0.015 | 8.48 | 4.59 | 19.7 | 15.4 | c1cnc2c(Nc3ccc4c(OCC5CCOC5)nccc4c3)n[nH]c2c1 (centres unmarked) [Compound 71]
23 |  | 0.008 | 0.002 | 0.52 | 0.13 | 273 | 55.7 | 55.7 | 15.2 | 0.009 | 12.9 | 3.15 | 24.6 | 22.7 | c1cnc2c(Nc3ccc4c(OCC5CCCOC5)nccc4c3)n[nH]c2c1 (centres unmarked) [Compound 72]
24 |  | 0.008 | 0.002 | 1.59 | 0.4 |  |  |  |  | 0.013 |  |  |  |  | c1cnc2[nH]nc(Nc3ccc4c(OCC5CCOCC5)nccc4c3)c2c1 [Compound 77]
25 | < 0.4 | 0.019 | 0.002 | 1.5 | 0.16 |  |  |  |  | 0.018 |  |  |  |  | c1cnc2[nH]nc(Nc3ccc4c(OCC5CCOC5)nccc4c3)c2c1 (centres unmarked) [Compound 79]
26 | 0.5 ± 0.2 (≈ 0.188 µg/mL) | 0.02 | 0.004 | 0.47 | 0.09 | 154 | 48.1 | 67.6 | 15.4 | 0.02 |  |  |  |  | c1cc2cc(Nc3n[nH]c4nccnc34)ccc2c(OCC2CCOCC2)n1 [Compound 82]
27 | 2.7 ± 0.4 (≈ 0.976 µg/mL) |  |  |  |  | 204 | 52.1 | 37.8 | 13.5 |  |  |  |  |  | C[C@@H]1C[C@H](Oc2nccc3cc(Nc4n[nH]c5cccnc45)ccc23)CO1 [Compound 89]
28 | 3.3 ± 0.2 (≈ 1.19 µg/mL) |  |  |  |  | 377 | 59.0 | 109 | 17.6 |  |  |  |  |  | C[C@H]1OCC[C@H]1Oc1nccc2cc(Nc3n[nH]c4cccnc34)ccc12 [Compound 91]
29 | 20.5 ± 2.1 (≈ 8 µg/mL) |  |  |  |  | 718 | 63.8 | 136 | 18.2 |  |  |  |  |  | c1cnc2c(Nc3ccc4c(OCCN5CCOCC5)nccc4c3)n[nH]c2c1 [Compound 93]
